Measurements as given in paper PMC4941420, “A Rational Approach for the Identification of Non-Hydroxamate HDAC6-Selective Inhibitors” (Scientific Reports, 2016).

Columns and labels:
[1] = test system: class I HDACs (HeLa nuclear extracts); assay: HDAC activity of HeLa nuclear extracts (Fluor de Lys); assay type: biochemical, human
HDAC6 [2] = molecular target: T1, HDAC6 (Homo sapiens, UniProt Q9UBN7); assay: In vitro enzymatic assay HDAC6 (Fluor de Lys); assay type: biochemical; details: for HDAC6 % of inhibition at 100 µM / inhibition at 100 µM: mean ± SD (n=3); for inhibition at 100 µM: read-out: HDAC6 % of inhibition at 100 µM; for IC50: average of at least 2 independent experiments in duplicates ± SEM
T1 construct: purchased Sigma Aldrich or Reaction Biology Corporation
T1 sequence (Q9UBN7 1-1215): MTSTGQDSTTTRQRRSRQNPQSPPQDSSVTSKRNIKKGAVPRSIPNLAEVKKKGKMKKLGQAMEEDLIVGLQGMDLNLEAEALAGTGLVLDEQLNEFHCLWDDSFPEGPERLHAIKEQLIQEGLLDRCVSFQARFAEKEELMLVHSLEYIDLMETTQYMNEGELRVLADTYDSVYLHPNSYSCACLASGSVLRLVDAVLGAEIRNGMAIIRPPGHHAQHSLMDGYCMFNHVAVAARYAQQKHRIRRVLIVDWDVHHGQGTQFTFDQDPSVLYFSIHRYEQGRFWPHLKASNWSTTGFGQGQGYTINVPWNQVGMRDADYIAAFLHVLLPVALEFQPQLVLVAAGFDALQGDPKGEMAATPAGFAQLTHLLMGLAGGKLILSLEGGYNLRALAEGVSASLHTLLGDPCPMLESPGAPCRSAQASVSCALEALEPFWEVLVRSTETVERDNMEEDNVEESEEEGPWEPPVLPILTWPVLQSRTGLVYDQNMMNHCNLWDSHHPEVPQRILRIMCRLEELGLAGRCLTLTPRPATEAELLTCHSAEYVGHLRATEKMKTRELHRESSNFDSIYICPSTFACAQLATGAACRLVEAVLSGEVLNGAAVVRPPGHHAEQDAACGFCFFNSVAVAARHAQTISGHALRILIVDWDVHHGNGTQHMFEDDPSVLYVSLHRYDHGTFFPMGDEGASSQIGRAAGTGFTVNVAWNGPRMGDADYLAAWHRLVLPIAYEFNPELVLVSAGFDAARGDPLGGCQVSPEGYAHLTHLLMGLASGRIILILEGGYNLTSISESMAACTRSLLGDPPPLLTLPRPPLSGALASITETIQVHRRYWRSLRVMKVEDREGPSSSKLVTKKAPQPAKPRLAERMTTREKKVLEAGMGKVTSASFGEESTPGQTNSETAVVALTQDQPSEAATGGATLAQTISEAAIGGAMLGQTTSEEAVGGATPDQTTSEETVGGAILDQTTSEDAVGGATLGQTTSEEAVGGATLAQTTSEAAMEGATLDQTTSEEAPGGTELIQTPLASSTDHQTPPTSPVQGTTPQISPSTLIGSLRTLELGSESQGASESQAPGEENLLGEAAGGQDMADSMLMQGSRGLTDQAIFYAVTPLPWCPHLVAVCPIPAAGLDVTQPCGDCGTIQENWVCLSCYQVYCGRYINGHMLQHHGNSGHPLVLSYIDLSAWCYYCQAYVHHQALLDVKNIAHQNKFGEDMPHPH

HDAC2 = molecular target: T2, HDAC2 (Homo sapiens, UniProt Q92769); assay: In vitro enzymatic assay HDAC2 (Fluor de Lys); assay type: biochemical; details: average of at least 2 independent experiments in duplicates ± SEM
T2 construct: purchased Sigma Aldrich or Reaction Biology Corporation

HDAC8 = molecular target: T3, HDAC8 (Homo sapiens, UniProt Q9BY41); assay: In vitro enzymatic assay HDAC8 (Fluor de Lys); assay type: biochemical; details: average of at least 2 independent experiments in duplicates ± SEM
T3 construct: purchased Sigma Aldrich or Reaction Biology Corporation
T3 sequence (Q9BY41 1-377): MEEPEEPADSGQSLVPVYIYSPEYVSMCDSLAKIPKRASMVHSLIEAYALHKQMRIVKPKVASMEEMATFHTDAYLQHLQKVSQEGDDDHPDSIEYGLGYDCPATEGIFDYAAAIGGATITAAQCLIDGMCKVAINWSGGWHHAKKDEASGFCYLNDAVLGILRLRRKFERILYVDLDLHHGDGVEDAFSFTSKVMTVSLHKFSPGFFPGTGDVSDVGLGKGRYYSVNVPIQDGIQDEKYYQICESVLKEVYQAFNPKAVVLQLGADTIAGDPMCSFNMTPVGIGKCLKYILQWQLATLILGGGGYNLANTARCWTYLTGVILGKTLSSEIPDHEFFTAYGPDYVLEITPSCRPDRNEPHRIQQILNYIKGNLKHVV

HDAC4 = molecular target: T4, HDAC4 (Homo sapiens, UniProt P56524); assay: In vitro enzymatic assay HDAC4 (Fluor de Lys); assay type: biochemical; details: average of at least 2 independent experiments in duplicates ± SEM
T4 construct: purchased Sigma Aldrich or Reaction Biology Corporation

[3] = Solubility remarks during testing; assay type: physicochemical; details: tested at 100 µM in HDAC assay buffer
HDAC6 [4] = assay: HDAC ChEMBL dataset / literature, enzymatic IC50 HDAC6; assay type: biochemical; details: ratio of ChEMBL IC50 values
[5] = 100 μM, average of at least 3 independent experiments in duplicates (Table 1)

T4 sequence (P56524 whole entry): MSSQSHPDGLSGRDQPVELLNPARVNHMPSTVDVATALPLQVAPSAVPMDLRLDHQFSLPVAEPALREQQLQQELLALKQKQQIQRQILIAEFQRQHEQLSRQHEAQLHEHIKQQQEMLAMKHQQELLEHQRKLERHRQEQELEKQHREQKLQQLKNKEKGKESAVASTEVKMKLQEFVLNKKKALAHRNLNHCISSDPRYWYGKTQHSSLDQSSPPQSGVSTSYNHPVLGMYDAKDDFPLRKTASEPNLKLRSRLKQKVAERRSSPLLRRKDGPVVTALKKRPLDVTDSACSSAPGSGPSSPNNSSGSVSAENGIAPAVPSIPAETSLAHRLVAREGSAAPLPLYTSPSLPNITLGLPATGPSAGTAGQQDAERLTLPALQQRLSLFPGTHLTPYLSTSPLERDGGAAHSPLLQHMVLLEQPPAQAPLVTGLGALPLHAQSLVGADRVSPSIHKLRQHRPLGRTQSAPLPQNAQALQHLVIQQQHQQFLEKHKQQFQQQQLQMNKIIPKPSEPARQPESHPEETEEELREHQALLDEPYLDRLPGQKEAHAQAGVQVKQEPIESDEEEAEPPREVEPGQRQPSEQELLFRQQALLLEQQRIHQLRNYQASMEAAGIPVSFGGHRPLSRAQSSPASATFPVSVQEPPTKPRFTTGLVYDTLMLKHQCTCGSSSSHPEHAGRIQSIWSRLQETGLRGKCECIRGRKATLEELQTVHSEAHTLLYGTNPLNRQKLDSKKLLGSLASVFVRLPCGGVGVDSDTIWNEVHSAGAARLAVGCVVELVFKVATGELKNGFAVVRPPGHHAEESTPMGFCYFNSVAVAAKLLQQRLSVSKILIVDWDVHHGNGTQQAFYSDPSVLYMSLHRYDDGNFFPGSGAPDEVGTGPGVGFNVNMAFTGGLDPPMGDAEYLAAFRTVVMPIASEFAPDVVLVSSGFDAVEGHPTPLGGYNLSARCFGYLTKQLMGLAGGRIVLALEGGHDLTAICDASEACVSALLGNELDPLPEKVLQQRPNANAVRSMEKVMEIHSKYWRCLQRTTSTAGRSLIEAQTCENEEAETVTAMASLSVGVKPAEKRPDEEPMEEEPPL
T2 sequence (Q92769 whole entry): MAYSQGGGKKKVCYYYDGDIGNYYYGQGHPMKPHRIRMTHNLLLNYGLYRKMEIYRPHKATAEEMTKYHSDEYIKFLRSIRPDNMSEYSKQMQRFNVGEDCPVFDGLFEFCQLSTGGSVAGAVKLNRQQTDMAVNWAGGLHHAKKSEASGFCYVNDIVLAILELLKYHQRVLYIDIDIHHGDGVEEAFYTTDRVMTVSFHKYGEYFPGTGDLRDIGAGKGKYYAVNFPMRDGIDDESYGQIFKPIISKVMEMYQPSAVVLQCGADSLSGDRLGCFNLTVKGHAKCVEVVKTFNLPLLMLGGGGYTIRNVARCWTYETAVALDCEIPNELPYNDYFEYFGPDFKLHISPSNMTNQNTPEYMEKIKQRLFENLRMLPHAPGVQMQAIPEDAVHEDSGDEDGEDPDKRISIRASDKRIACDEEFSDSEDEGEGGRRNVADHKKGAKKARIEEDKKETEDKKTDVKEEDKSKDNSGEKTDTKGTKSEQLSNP

## COc1ccccc1OCc1ccc(C(=O)NN)o1 [AK-15]
[1]; 100 µM, mean ± SD (n=3) (Table S6)
  HeLa % of inhibition at 100 μM: -2.6 ± 3.0%
HDAC6 [2]
  HDAC6 % of inhibition at 100 µM: 42.1 ± 23.0%

## CCOc1ccc(OCc2ccc(C(=O)NN)o2)cc1 [AK-16]
HDAC6 [2]
  HDAC6 % of inhibition at 100 µM: 36.9 ± 11.3%

## CCOc1ccc(OCc2cccc(C(=O)NN)c2)cc1 [AK-17]
HDAC6 [2]
  HDAC6 % of inhibition at 100 µM: 35.5 ± 10.5%

## NNC(=O)c1ccc(COc2ccccc2Br)cc1 [AK-18]
[1]; [5]
  HeLa % of inhibition at 100 μM: 0.4 ± 3.9%
HDAC6 [2]
  inhibition at 100 µM: 69 ± 2.4%
  IC50: 16.4 ± 1.1 µM
HDAC2
  IC50: > 1000 µM
HDAC8
  IC50: > 300 µM
HDAC4
  IC50: > 300 µM

## Cc1nnn(C23CC4CC(CC(C(=O)NN)(C4)C2)C3)n1 [AK-19]
HDAC6 [2]
  HDAC6 % of inhibition at 100 µM: 18.1 ± 4.0%

## NNC(=O)c1cc(Br)cs1 [AK-20]
HDAC6 [2]
  HDAC6 % of inhibition at 100 µM: 22.3 ± 8.7%

## NNC(=O)c1ccc(Cn2cc(Br)cn2)cc1 [AK-21]
[1]; [5]
  HeLa % of inhibition at 100 μM: 14.7 ± 11.6%
HDAC6 [2]
  inhibition at 100 µM: 67.9 ± 7.8%
  IC50: 30.9 ± 2.1 µM
HDAC2
  IC50: 201.7 ± 1.9 µM
HDAC8
  IC50: 74.9 ± 0.8 µM
HDAC4
  IC50: > 300 µM

## NNC(=O)c1cccc(COc2ccccc2Br)c1 [AK-22]
HDAC6 [2]
  HDAC6 % of inhibition at 100 µM: 25.4 ± 9.7%

## CC(C)(C)C1CCC(C(=O)NN)CC1 (stereo not shown) [AK-23]
HDAC6 [2]
  HDAC6 % of inhibition at 100 µM: 20.2 ± 10.9%

## NNC(=O)c1ccc(Cn2cc(Cl)cn2)cc1 [AK-24]
[1]; [5]
  HeLa % of inhibition at 100 μM: 33.3 ± 5.4%
HDAC6 [2]
  inhibition at 100 µM: 63.1 ± 12.2%
  IC50: 74.9 ± 5.2 µM
HDAC2
  IC50: > 200 µM
HDAC8
  IC50: 86.9 ± 0.7 µM
HDAC4
  IC50: > 300 µM

## NNC(=O)c1ccc(COc2ccc(Cl)cc2Cl)o1 [AK-25]
HDAC6 [2]
  HDAC6 % of inhibition at 100 µM: 29.1 ± 10.3%

## NS(=O)(=O)c1ccc(N2N=C(C(F)(F)F)/C(=C/c3ccc(-c4ccc(Cl)c(Cl)c4)o3)C2=O)cc1 [AN-1]
HDAC6 [2]
  HDAC6 % of inhibition at 100 µM: -43.0 ± 11.8%

## COc1cc(/C=N/NC(N)=S)ccc1OCC(=O)Nc1ccc(Br)c(Cl)c1 [AN-2]
HDAC6 [2]
  HDAC6 % of inhibition at 100 µM: 4.9 ± 8.2% Self-fluorescence

## COc1cc(/C=N/NC(N)=S)ccc1OCC(=O)Nc1ccc(C)c(C)c1 [AN-3]
HDAC6 [2]
  HDAC6 % of inhibition at 100 µM: -4.0 ± 3.9% Self-fluorescence

## O=C(CSc1nc2cc(Cl)c3cccnc3c2o1)c1ccc(O)c(O)c1 [AO-1]
[1]; [5]
  HeLa % of inhibition at 100 μM: 20.7 ± 4.0%
HDAC6 [2]
  inhibition at 100 µM: 66.1 ± 6.9%
  IC50: 16.9 ± 4.9 µM
HDAC6 [2]; HDAC6 versus HDAC2
  selectivity index (SI) with respect to HDAC2: > 50
HDAC2
  IC50: > 1000 µM
HDAC8
  IC50: 35.1 ± 1.1 µM
HDAC4
  IC50: 73.5 ± 6 µM

## Cc1cccc(Cn2nnc3c(=O)n(CC(=O)Nc4ccc(S(N)(=O)=O)cc4)cnc32)c1 [AO-2]
HDAC6 [2]
  HDAC6 % of inhibition at 100 µM: -3.3 ± 5.4%

## Cc1cc2ccccc2n2c(SCC(=O)Nc3ccc(S(N)(=O)=O)cc3)nnc12 [AQ-1]
HDAC6 [2]
  HDAC6 % of inhibition at 100 µM: -16.4 ± 9.3%
[3]
  solubility remark in HDAC6 screening: Solubility issues

## C=CCn1c(SCC(=O)Nc2ccc(S(N)(=O)=O)cc2)nnc1-c1sc(N)nc1C [AS-1]
HDAC6 [2]
  HDAC6 % of inhibition at 100 µM: -1.8 ± 11.1%

## O=C(NO)c1ccc(C(=O)NCCc2ccccc2)cc1 [CHEMBL2333340]
HDAC6 [4]
  Isoform selectivity (ratio) HDAC2/HDAC6: 151.75
  Isoform selectivity (ratio) HDAC4/HDAC6: 8332.5
  Isoform selectivity (ratio) HDAC8/HDAC6: 287.5

## Cn1cccc1C(=O)N1CCc2cc(C(=O)NO)ccc2C1 [CHEMBL2431901]
HDAC6 [4]
  Isoform selectivity (ratio) HDAC2/HDAC6: 1388.9
  Isoform selectivity (ratio) HDAC4/HDAC6: 1388.9
  Isoform selectivity (ratio) HDAC8/HDAC6: 58.33

## Cn1cccc1C(=O)N1Cc2ccc(C(=O)NO)cc2C1 [CHEMBL2431906]
HDAC6 [4]
  Isoform selectivity (ratio) HDAC2/HDAC6: 169.2
  Isoform selectivity (ratio) HDAC4/HDAC6: 84.6
